Experimental data reported in PubChem BioAssay (NCI).
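Five compound concentrations were applied to cells in 96-well plates for 48 hours; endpoints were derived by simple linear interpolation of the resulting dose-response curve. GI50 is the concentration that inhibits growth by half. At the TGI there is no net growth.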

What was measured:
Assay in all cases: DTP human tumour cell line panel, 48 h
SK-MEL-5 melanoma = system: SK-MEL-5 melanoma
T-47D breast = system: T-47D breast
NCI/ADR-RES ovarian = system: NCI/ADR-RES ovarian
MDA-MB-231 breast = system: MDA-MB-231 breast
NCI-H23 lung = system: NCI-H23 lung
SF-268 CNS = system: SF-268 CNS
786-0 renal = system: 786-0 renal
ACHN renal = system: ACHN renal
IGROV1 ovarian = system: IGROV1 ovarian
MALME-3M melanoma = system: MALME-3M melanoma
CCRF-CEM leukemia = system: CCRF-CEM leukemia
HL-60(TB) leukemia = system: HL-60(TB) leukemia
SF-539 CNS = system: SF-539 CNS
SK-MEL-2 melanoma = system: SK-MEL-2 melanoma
HOP-92 NSCLC = system: HOP-92 NSCLC
SK-OV-3 ovarian = system: SK-OV-3 ovarian
HT29 colon = system: HT29 colon
SF-295 CNS = system: SF-295 CNS
OVCAR-5 ovarian = system: OVCAR-5 ovarian
UO-31 renal = system: UO-31 renal
HS 578T breast = system: HS 578T breast
PC-3 prostate = system: PC-3 prostate
BT-549 breast = system: BT-549 breast
SNB-75 CNS = system: SNB-75 CNS
DU-145 prostate = system: DU-145 prostate
TK-10 renal = system: TK-10 renal
A549 NSCLC = system: A549 NSCLC
A498 renal = system: A498 renal
OVCAR-8 ovarian = system: OVCAR-8 ovarian
SK-MEL-28 melanoma = system: SK-MEL-28 melanoma
LOX IMVI melanoma = system: LOX IMVI melanoma
OVCAR-3 ovarian = system: OVCAR-3 ovarian
HCT-116 colon = system: HCT-116 colon
NCI-H460 lung = system: NCI-H460 lung
MCF7 breast = system: MCF7 breast
HCT-15 colon = system: HCT-15 colon
MOLT-4 leukemia = system: MOLT-4 leukemia
KM12 colon = system: KM12 colon
CAKI-1 renal = system: CAKI-1 renal
SW-620 colon = system: SW-620 colon
UACC-62 melanoma = system: UACC-62 melanoma
RPMI-8226 leukemia = system: RPMI-8226 leukemia
NCI-H226 lung = system: NCI-H226 lung
K-562 leukemia = system: K-562 leukemia
SR leukemia = system: SR leukemia
UACC-257 melanoma = system: UACC-257 melanoma
OVCAR-4 ovarian = system: OVCAR-4 ovarian
SN12C renal = system: SN12C renal
EKVX NSCLC = system: EKVX NSCLC
RXF 393 renal = system: RXF 393 renal
U251 CNS = system: U251 CNS
SNB-19 CNS = system: SNB-19 CNS
NCI-H522 lung = system: NCI-H522 lung
COLO 205 colon = system: COLO 205 colon
HOP-62 NSCLC = system: HOP-62 NSCLC
M14 melanoma = system: M14 melanoma
HCC-2998 colon = system: HCC-2998 colon

In the case of `O=C(N/N=C/c1ccco1)c1[nH]c2ccc(Br)cc2c1-c1ccccc1`, the GI50 (SK-MEL-5 melanoma) is reported as 133 nM, the TGI (SK-MEL-5 melanoma) is reported as 644 nM and the GI50 (T-47D breast) is reported as 1410 nM. It also gave a TGI (T-47D breast) of 26900 nM, a GI50 (NCI/ADR-RES ovarian) of 187 nM and a TGI (NCI/ADR-RES ovarian) of 2800 nM. The GI50 (MDA-MB-231 breast) was 292 nM, the TGI (MDA-MB-231 breast) was 2970 nM and the GI50 (NCI-H23 lung) was 403 nM. For the same compound, the TGI (NCI-H23 lung) was 14200 nM, the GI50 (SF-268 CNS) was 975 nM and the TGI (SF-268 CNS) was 27900 nM. For the same compound, the GI50 (786-0 renal) was 411 nM, the TGI (786-0 renal) was 12600 nM and the GI50 (ACHN renal) was 303 nM. It also gave a TGI (ACHN renal) of 14700 nM, a GI50 (IGROV1 ovarian) of 212 nM and a TGI (IGROV1 ovarian) of 12800 nM. For the same compound, the GI50 (MALME-3M melanoma) was 211 nM, the TGI (MALME-3M melanoma) was 21300 nM and the GI50 (CCRF-CEM leukemia) was 238 nM. The TGI (CCRF-CEM leukemia) was 27100 nM, the GI50 (HL-60(TB) leukemia) was 135 nM and the TGI (HL-60(TB) leukemia) was 503 nM. The GI50 (SF-539 CNS) was 91 nM, the TGI (SF-539 CNS) was 482 nM and the GI50 (SK-MEL-2 melanoma) was 302 nM. For the same compound, the TGI (SK-MEL-2 melanoma) was 22400 nM, the GI50 (HOP-92 NSCLC) was 763 nM and the TGI (HOP-92 NSCLC) was 13200 nM. The GI50 (SK-OV-3 ovarian) was 403 nM, the TGI (SK-OV-3 ovarian) was 16900 nM and the GI50 (HT29 colon) was 143 nM. It also gave a TGI (HT29 colon) of 1230 nM, a GI50 (SF-295 CNS) of 46.4 nM and a TGI (SF-295 CNS) of 11100 nM. For the same compound, the GI50 (OVCAR-5 ovarian) was 320 nM, the TGI (OVCAR-5 ovarian) was 17600 nM and the GI50 (UO-31 renal) was 267 nM. It also gave a TGI (UO-31 renal) of 15400 nM, a GI50 (HS 578T breast) of 234 nM and a TGI (HS 578T breast) of 29500 nM. It also gave a GI50 (PC-3 prostate) of 309 nM, a TGI (PC-3 prostate) of 15900 nM and a GI50 (BT-549 breast) of 220 nM. The TGI (BT-549 breast) was 1190 nM, the GI50 (SNB-75 CNS) was 177 nM and the TGI (SNB-75 CNS) was 5770 nM. For the same compound, the GI50 (DU-145 prostate) was 309 nM, the TGI (DU-145 prostate) was 12000 nM and the GI50 (TK-10 renal) was 1610 nM. It also gave a TGI (TK-10 renal) of 18000 nM, a GI50 (A549 NSCLC) of 191 nM and a TGI (A549 NSCLC) of 14300 nM. It also gave a GI50 (A498 renal) of 8760 nM, a TGI (A498 renal) of 25400 nM and a GI50 (OVCAR-8 ovarian) of 162 nM. It also gave a TGI (OVCAR-8 ovarian) of 3230 nM, a GI50 (SK-MEL-28 melanoma) of 735 nM and a TGI (SK-MEL-28 melanoma) of 21100 nM. The GI50 (LOX IMVI melanoma) was 89.9 nM, the TGI (LOX IMVI melanoma) was 11700 nM and the GI50 (OVCAR-3 ovarian) was 281 nM. The TGI (OVCAR-3 ovarian) was 14900 nM, the GI50 (HCT-116 colon) was 106 nM and the TGI (HCT-116 colon) was 10700 nM. For the same compound, the GI50 (NCI-H460 lung) was 147 nM, the TGI (NCI-H460 lung) was 1700 nM and the GI50 (MCF7 breast) was 67.3 nM. The TGI (MCF7 breast) was 11100 nM, the GI50 (HCT-15 colon) was 85.9 nM and the TGI (HCT-15 colon) was 11800 nM. The GI50 (MOLT-4 leukemia) was 265 nM, the TGI (MOLT-4 leukemia) was 11700 nM and the GI50 (KM12 colon) was 281 nM. It also gave a TGI (KM12 colon) of 12700 nM, a GI50 (CAKI-1 renal) of 251 nM and a TGI (CAKI-1 renal) of 16500 nM. It also gave a GI50 (SW-620 colon) of 105 nM, a TGI (SW-620 colon) of 17300 nM and a GI50 (UACC-62 melanoma) of 72.4 nM. The TGI (UACC-62 melanoma) was 13600 nM, the GI50 (RPMI-8226 leukemia) was 200 nM and the TGI (RPMI-8226 leukemia) was over 26900 nM. For the same compound, the GI50 (NCI-H226 lung) was 327 nM, the TGI (NCI-H226 lung) was 10400 nM and the GI50 (K-562 leukemia) was 48.5 nM. The TGI (K-562 leukemia) was 11900 nM, the GI50 (SR leukemia) was 52.7 nM and the TGI (SR leukemia) was 5100 nM. For the same compound, the GI50 (UACC-257 melanoma) was 437 nM, the TGI (UACC-257 melanoma) was 17300 nM and the GI50 (OVCAR-4 ovarian) was 988 nM. The TGI (OVCAR-4 ovarian) was 26200 nM, the GI50 (SN12C renal) was 201 nM and the TGI (SN12C renal) was 4530 nM. For the same compound, the GI50 (EKVX NSCLC) was 1300 nM, the TGI (EKVX NSCLC) was 27300 nM and the GI50 (RXF 393 renal) was 348 nM. The TGI (RXF 393 renal) was 16900 nM, the GI50 (U251 CNS) was 192 nM and the TGI (U251 CNS) was 11800 nM. The GI50 (SNB-19 CNS) was 252 nM, the TGI (SNB-19 CNS) was 14700 nM and the GI50 (NCI-H522 lung) was 42.5 nM. The TGI (NCI-H522 lung) was 225 nM, the GI50 (COLO 205 colon) was 226 nM and the TGI (COLO 205 colon) was 695 nM. For the same compound, the GI50 (HOP-62 NSCLC) was 326 nM, the TGI (HOP-62 NSCLC) was 15400 nM and the GI50 (M14 melanoma) was 165 nM. For the same compound, the TGI (M14 melanoma) was 21900 nM, the GI50 (HCC-2998 colon) was 240 nM and the TGI (HCC-2998 colon) was 9410 nM.
